Data: patent publication US20240285634A1, “COMPOUND AND METHOD FOR TREATING CHEMOTHERAPY-ASSOCIATED GASTROINTESTINAL SIDE EFFECTS” (ONQUALITY PHARMACEUTICALS CHINA LTD., priority 2021, published 2024)
Where a name gives a salt, the structure may show the parent alone.

Columns and labels:
[1] = system: Chemotherapeutic agent-caused diarrhea models of Balb/c mice; experiment: Relieving effect on diarrhea caused by a chemotherapeutic agent (Examples 1-201); assay type: in vivo
Text: Construction of mouse animal models: Chemotherapeutic agent-caused diarrhea models of Balb/c mice were constructed according to the administration mode and frequency of the chemotherapeutic agent as shown in Table 3. After administration for several days, mice developed different extents of diarrhea symptoms (as shown in FIG. 1), which were similar to the conditions in human. Thus, chemotherapeutic agent-caused diarrhea models of mice are very good models to mimic diarrhea in human caused by the chemotherapeutic agent.
Balb/c mice were fed for 1 week, and then divided into groups. The experiment was divided into a control group, a chemotherapeutic agent group, and a group of the compound as shown in Formula I, each of which comprised 10 mice, to perform the administration experiment, for which the administration dosage, mode, time and frequency were shown in Table 3. The control group: being injected or intragastrically administered with the same solvent as that used in the group of the compound as shown in Formula I (the injection mode and time were shown in Table 3), and then being injected or intragastrically administered with the same solvent as that used in the chemotherapeutic agent group (the administration mode was shown in Table 3); the chemotherapeutic agent group: being injected or intragastrically administered with the same solvent as that used in the group of the compound as shown in Formula I (the administration mode and time were shown in Table 3), and then being injected or intragastrically administered with the chemotherapeutic agent (the type, administration mode and dosage were shown in Table 3); the group of the compound as shown in Formula I: being injected or intragastrically administered with the compound as shown in Formula I (the administration mode and time were shown in Table 3), and then being administered with the chemotherapeutic agent (the administration mode and dosage were shown in Table 3).
(§1) The scoring of diarrhea can refer to the method of Akinobu Kurita (Cancer Chemother Pharmacol 2000; 46:211-20.), Grade 0: normal feces; Grade 1: mild diarrhea, the stools is slightly wet and soft; Grade 2: moderate diarrhea, loose stools and mild perianal contamination; Grade 3: severe diarrhea, watery stools and accompanied by severe perianal staining (see FIG. 1). It is regarded as effective remission when the diarrhea grading of mice in the group of the compound as shown in Formula I is reduced compared with the average diarrhea grading of mice in the chemotherapeutic agent group.
(§2) The diarrhea grading of mice was observed and recorded every day. At the end of the experiment, the number of mice in the group of the compound as shown in Formula I whose diarrhea grading was lower than that of mice in the chemotherapeutic agent group was recorded. Table 3 lists various animal experiment combinations of chemotherapeutic agents and the compound as shown in Formula I, as well as the corresponding experimental results. (Relative remission rate %=the number of mice in the group of the compound as shown in Formula I whose diarrhea has been effectively relieved/the total number of mice in the group of the compound as shown in Formula I*100%. The establishment rate of diarrhea model in the chemotherapeutic agent group was 50%-70%, that is, about 5-7 of 10 mice developed diarrhea during the experiment, and there were cases of individual mice death or not developing diarrhea.)

[2] = system: Balb/c mice, diarrhea caused by continuous administration of a chemotherapeutic agent; experiment: Relieving effect on diarrhea caused by the continuous administration of a chemotherapeutic agent (Examples 365-384); assay type: in vivo
Text: Balb/c mice were fed for 1 week, and then divided into groups. The experiment was divided into a control group, a chemotherapeutic agent group, and a group of the compound as shown in Formula I, each of which comprised 10 mice, to perform the administration experiment, for which the administration dosage, mode, time and frequency were shown in Table 5. The control group: being injected or intragastrically administered with the same solvent as that used in the group of the compound as shown in Formula I (the administration mode and time were shown in Table 5), and then being injected or intragastrically administered with the same solvent as that used in the chemotherapeutic agent group (the administration mode was shown in Table 5); the chemotherapeutic agent group: being injected or intragastrically administered with the same solvent as that used in the group of the compound as shown in Formula I (the administration mode and time were shown in Table 5), and then being injected or intragastrically administered with the chemotherapeutic agent (the type, administration mode, time and dosage were shown in Table 5); the group of the compound as shown in Formula I: being injected or intragastrically administered with the compound as shown in Formula I (the administration mode and time were shown in Table 5), and then being administered with the chemotherapeutic agent (the type, administration mode, time and dosage were shown in Table 5).
as §1, with “0):” for “0:”
as §2, with “5” for “3”, “50%-80%,” for “50%-70%,”, “5-8” for “5-7”

O=C1NCC2(CCCCC2)n2c1cc1cnc(Nc3ccc(N4CCC(N5CCOCC5)CC4)cn3)nc12 [Compound III]
Relative remission rate ([1]; Ex 89, Oxaliplatin 17.5 mg/kg intravenous single, compound 100 mg/kg intraperitoneal single 1 h before, cycle 8 days): 40%
Relative remission rate ([1]; Ex 90, Oxaliplatin 17.5 mg/kg intravenous single, compound 100 mg/kg intraperitoneal single 4 h before, cycle 8 days): 70%
Relative remission rate ([1]; Ex 91, Oxaliplatin 17.5 mg/kg intravenous single, compound 100 mg/kg intraperitoneal single 8 h before, cycle 8 days): 40%
Relative remission rate ([1]; Ex 178, Fluorouracil 50 + oxaliplatin 5 + irinotecan 50 + tetrahydrofolic acid 90 mg/kg intravenous single, compound 150 mg/kg oral single 0.5 h before, cycle 7 days): 30%
Relative remission rate ([1]; Ex 179, Fluorouracil 50 + oxaliplatin 5 + irinotecan 50 + tetrahydrofolic acid 90 mg/kg intravenous single, compound 150 mg/kg oral single 4 h before, cycle 7 days): 50%
Relative remission rate ([1]; Ex 180, Fluorouracil 50 + oxaliplatin 5 + irinotecan 50 + tetrahydrofolic acid 90 mg/kg intravenous single, compound 150 mg/kg oral single 8 h before, cycle 7 days): 40%
Relative remission rate ([1]; Ex 181, Fluorouracil 50 + oxaliplatin 5 + irinotecan 50 + tetrahydrofolic acid 90 mg/kg intravenous single, compound 150 mg/kg oral single 12 h before, cycle 7 days): 40%
Relative remission rate ([1]; Ex 182, Fluorouracil 50 + oxaliplatin 5 + irinotecan 50 + tetrahydrofolic acid 90 mg/kg intravenous single, compound 150 mg/kg oral single 24 h before, cycle 7 days): 20%
Relative remission rate ([1]; Ex 199, Etoposide 60 + carboplatin 5 mg/kg intraperitoneal single, compound 100 mg/kg oral single 0.5 h before, cycle 10 days): 60%
diarrhea gradings compared with the chemotherapeutic agent group ([1]; administered before the chemotherapeutic agent, Table 3 and FIG. 2): relieved to different degrees
Relative remission rate (%) ([2]; Example 382, Fluorouracil (5-Fu) intravenous injection 70 mg/kg once a day, for 3 days, compound subcutaneous injection 100 mg/kg once a day, for 3 days, 12 h before chemotherapeutic agent, cycle 8 days): 20%
relieving effects on diarrhea ([2]; continuous administration of the chemotherapeutic agent for 7 days or less): have relieving effects
relieving effects on diarrhea ([2]; continuous administration of the chemotherapeutic agent for less than 7 days): significant

CC(C)N1CCN(c2ccc(Nc3ncc4cc5n(c4n3)C3(CCCCC3)CNC5=O)nc2)CC1 [Compound IV hydrochloride, Lerociclibdihydrochloride]
Relative remission rate ([1]; Ex 115, Irinotecan (CPT-11) 240 mg/kg intraperitoneal single, compound 100 mg/kg intraperitoneal single 0.5 h before, cycle 11 days): 40%
Relative remission rate ([1]; Ex 116, Irinotecan (CPT-11) 240 mg/kg intraperitoneal single, compound 100 mg/kg intraperitoneal single 4 h before, cycle 11 days): 60%
Relative remission rate ([1]; Ex 117, Irinotecan (CPT-11) 240 mg/kg intraperitoneal single, compound 100 mg/kg intraperitoneal single 12 h before, cycle 11 days): 20%
Relative remission rate ([1]; Ex 188, Fluorouracil 50 + oxaliplatin 5 + irinotecan 50 + tetrahydrofolic acid 90 mg/kg intravenous single, compound 100 mg/kg intraperitoneal single 0.5 h before, cycle 7 days): 70%
Relative remission rate ([1]; Ex 189, Fluorouracil 50 + oxaliplatin 5 + irinotecan 50 + tetrahydrofolic acid 90 mg/kg intravenous single, compound 100 mg/kg intraperitoneal single 12 h before, cycle 7 days): 50%
Relative remission rate ([1]; Ex 201, Gemcitabine 120 + carboplatin 5 mg/kg intravenous single, compound 100 mg/kg oral single 24 h before, cycle 8 days): 40%
